From patent US11292781B2, “Pyrimidine tricyclic enone derivatives for inhibition of ROR-gamma and other uses” (REATA PHARMACEUTICALS, INC., priority 2016, dated 2022)

Each compound was assayed on Nrf2 transcription factor (GST ARE luciferase reporter in AREc32 cells) (assay: AREc32 luciferase reporter assay). Settings: EC2×: concentration required to increase GST ARE luciferase reporter activity by 2-fold, 19 hours.
Format: cell-based, human
From the text: A. AREc32 Luciferase Reporter Assay The AREc32 luciferase reporter assay allows for quantitative assessment of the endogenous activity of the Nrf2 transcription factor in cultured mammalian cells. AREc32 cells are derived from MCF-7 human breast carcinoma cells that were stably transfected with a reporter construct that contains the firefly luciferase gene located downstream of eight copies of the rat GSTA2 antioxidant response element (ARE) sequence (Wang et al., 2006; CXR Biosciences). Active NRF2 binds to the ARE sequences and increases expression of the firefly luciferase gene. […] Luciferase activity was determined using the ONE-Glo Luciferase assay (Promega). The luminescence signal was measured on a BMG Pherastar microplate reader. The mean luminescence value from test compound-treated wells was normalized to that from DMSO-treated wells and was represented as fold-induction. Data were analyzed using GraphPad Prism version 6.00 for Windows, GraphPad Software, La Jolla Calif. USA. A non-linear regression curve with log (agonist) vs. response using a variable slope was used to fit the data. […] EC2× values were interpolated from the curve.
C[C@H]1C(=O)C(C#N)=C[C@@]2(C)c3nc(-c4ccnc5ccccc45)nc(-c4ccccc4F)c3C[C@H]12 [T170] was tested, and the “HRF2 ARE 2×” value was 1222 nM. With CC1(C)C(=O)[C@@]2(C#N)O[C@H]2[C@@]2(C)c3nc(-c4ccnc5ccccc45)nc(-c4ccccc4F)c3CC[C@H]12 [T133] the “HRF2 ARE 2×” value was 1199 nM. For C[C@H]1C(=O)[C@@]2(C#N)O[C@H]2[C@@]2(C)c3nc(-c4ccnc(C5CC5)c4)nc(-c4ccccc4F)c3CC[C@H]12 [T130], the “HRF2 ARE 2×” value was 692 nM. For C[C@H]1C(=O)C(C#N)=C[C@@]2(C)c3nc(-c4ccncc4)nc(-c4ccccc4)c3CC[C@H]12 [T14], the “HRF2 ARE 2×” value was 281 nM. COc1nc(-c2ccnc(C)c2)nc2c1CC[C@@H]1[C@@H](C)C(=O)C(C#N)=C[C@@]21C [T3] was tested, and the “HRF2 ARE 2×” value was 232 nM. In the case of Cc1cnccc1-c1nc(-c2ccccc2F)c2c(n1)[C@]1(C)C=C(C#N)C(=O)[C@H](C)[C@H]1CC2 [T56], the “HRF2 ARE 2×” value is reported as 193 nM. For COc1nc(-c2ccnc(F)c2)nc2c1CC[C@@H]1[C@@H](C)C(=O)C(C#N)=C[C@@]21C [T6], the “HRF2 ARE 2×” value was 341 nM. With C[C@H]1C(=O)[C@@]2(C#N)O[C@H]2[C@@]2(C)c3nc(-c4ccncc4)nc(-c4ccccc4)c3CC[C@H]12 [T15] the “HRF2 ARE 2×” value was 738 nM. With C[C@H]1C(=O)C(C#N)=C[C@@]2(C)c3nc(-c4ccc5ncccc5c4)nc(-c4ccccc4F)c3CC[C@H]12 [T60] the “HRF2 ARE 2×” value was 380 nM. For Cc1cc(-c2nc(-c3ccccc3F)c3c(n2)[C@]2(C)C=C(C#N)C(=O)[C@H](C)[C@H]2C3)c2cccc(F)c2n1 [T172], the “HRF2 ARE 2×” value was 998 nM. For COc1nc(OC)c2c(n1)[C@]1(C)C=C(C#N)C(=O)[C@H](C)[C@H]1CC2 [T1], the “HRF2 ARE 2×” value was 487 nM. For C[C@H]1C(=O)C(C#N)=C[C@@]2(C)c3nc(N4CCN(C)CC4)nc(-c4ccccc4F)c3CC[C@H]12 [T91], the “HRF2 ARE 2×” value was 552 nM. In the case of C[C@H]1C(=O)C(C#N)=C[C@@]2(C)c3nc(-c4ccncc4)nc(-c4ccncc4)c3CC[C@H]12 [T29], the “HRF2 ARE 2×” value is reported as 484 nM. For CC[C@@]1(C)C(=O)C(C#N)=C[C@@]2(C)c3nc(-c4ccnc(C5CC5)c4)nc(-c4ccccc4F)c3CC[C@H]12 [T181], the “HRF2 ARE 2×” value was 518 nM. In the case of COc1nc(-c2ccncc2C)nc2c1CC[C@@H]1[C@@H](C)C(=O)C(C#N)=C[C@@]21C [T4], the “HRF2 ARE 2×” value is reported as 449 nM. In the case of C[C@H]1C(=O)C(C#N)=C[C@@]2(C)c3ncnc(-c4ccccc4)c3CC[C@H]12 [T22], the “HRF2 ARE 2×” value is reported as 90 nM. In the case of CCC[C@@]12C=C(C#N)C(=O)[C@H](C)[C@H]1CCc1c(-c3ccccc3F)nc(-c3ccnc(C4CC4)c3)nc12 [T169], the “HRF2 ARE 2×” value is reported as 540 nM. In the case of C[C@H]1C(=O)C(C#N)=C[C@@]2(C)c3nc(-c4ccnc5ccccc45)nc(-c4ccccc4F)c3CC[C@H]12 [T37], the “HRF2 ARE 2×” value is reported as 351 nM. In the case of Cc1ccc(-c2nc(-c3ccncc3)nc3c2CC[C@@H]2[C@@H](C)C(=O)C(C#N)=C[C@@]32C)cc1 [T27], the “HRF2 ARE 2×” value is reported as 181 nM. In the case of C[C@H]1C(=O)C(C#N)=C[C@@]2(c3ccccc3)c3nc(-c4ccnc(C5CC5)c4)nc(-c4ccccc4F)c3CC[C@H]12 [T147], the “HRF2 ARE 2×” value is reported as over 2000 nM. For CC1=C2CCc3c(-c4ccccc4F)nc(-c4ccnc5c(F)cccc45)nc3[C@]2(C)C=C(C#N)C1=O [T128], the “HRF2 ARE 2×” value was 1385 nM. For C[C@H]1C(=O)[C@@]2(C#N)O[C@H]2[C@@]2(C)c3nc(-c4ccnc5cc(F)ccc45)nc(-c4ccccc4F)c3CC[C@H]12 [T129], the “HRF2 ARE 2×” value was 697 nM. With Cc1cc(-c2nc(-c3ccc(F)cc3)c3c(n2)[C@]2(C)C=C(C#N)C(=O)[C@H](C)[C@H]2CC3)ccn1 [T50] the “HRF2 ARE 2×” value was 256 nM. In the case of CC(C)c1ccc(-c2nc(-c3ccnc4ccccc34)nc3c2CC[C@@H]2[C@@H](C)C(=O)C(C#N)=C[C@@]32C)cc1 [T161], the “HRF2 ARE 2×” value is reported as 158 nM. For Cc1cc(-c2nc(-c3ccccc3)c3c(n2)[C@]2(C)C=C(C#N)C(=O)[C@H](C)[C@H]2CCC3)ccn1 [T182], the “HRF2 ARE 2×” value was 892 nM. With C[C@H]1C(=O)C(C#N)=C[C@@]2(C)c3nc(-c4ccccc4)nc(-c4ccccc4)c3CC[C@H]12 [T19] the “HRF2 ARE 2×” value was 741 nM. With C[C@H]1C(=O)C(C#N)=C[C@@]2(C)c3nc(-c4ccncc4)nc(-c4ccc(Cl)c(Cl)c4)c3CC[C@H]12 [T31] the “HRF2 ARE 2×” value was 186 nM. In the case of COc1nc(-c2cccnc2)nc2c1CC[C@@H]1[C@@H](C)C(=O)C(C#N)=C[C@@]21C [T7], the “HRF2 ARE 2×” value is reported as 388 nM. For C[C@H]1C(=O)C(C#N)=C[C@@]2(C)c3nc(-c4ccnc5ccccc45)nc(-c4ccc(-c5ccccc5)cc4)c3CC[C@H]12 [T163], the “HRF2 ARE 2×” value was 312 nM. With C[C@H]1C(=O)C(C#N)=C[C@@]2(C)c3nc(-c4ccnc(CCC(N)=O)c4)nc(-c4ccccc4F)c3CC[C@H]12 [T177] the “HRF2 ARE 2×” value was 491 nM. In the case of C[C@H]1C(=O)C(C#N)=C[C@@]2(C)c3nc(-c4ccccc4F)nc(-c4ccccc4F)c3CC[C@H]12 [T81], the “HRF2 ARE 2×” value is reported as 705 nM. Cc1ccc(-c2nc(-c3ccccc3F)c3c(n2)[C@]2(C)C=C(C#N)C(=O)[C@H](C)[C@H]2CC3)cn1 [T88] was tested, and the “HRF2 ARE 2×” value was 177 nM. With C[C@H]1C(=O)C(C#N)=C[C@@]2(C)c3nc(-c4ccncc4)nc(-c4cccnc4)c3CC[C@H]12 [T25] the “HRF2 ARE 2×” value was 449 nM. With Cc1ccc(S(=O)(=O)Oc2nc(-c3ccncc3)nc3c2CC[C@@H]2[C@@H](C)C(=O)C(C#N)=C[C@@]32C)cc1 [T18] the “HRF2 ARE 2×” value was 381 nM. For C[C@H]1C(=O)C(C#N)=C[C@@]2(C)c3nc(-c4cccc5ncccc45)nc(-c4ccccc4F)c3C[C@H]12 [T173], the “HRF2 ARE 2×” value was over 2000 nM. For CC1(C)C(=O)C(C#N)=C[C@@]2(C)c3nc(-c4ccnc5ccccc45)nc(-c4ccccc4F)c3CC[C@H]12 [T118], the “HRF2 ARE 2×” value was 395 nM. For CCC[C@H]1C(=O)C(C#N)=C[C@@]2(C)c3nc(-c4ccnc(C5CC5)c4)nc(-c4ccccc4F)c3CC[C@H]12 [T146], the “HRF2 ARE 2×” value was 447 nM. For C[C@H]1C(=O)C(C#N)=C[C@@]2(C)c3nc(-c4ccncc4)nc(-c4ccc(CO)cc4)c3CC[C@H]12 [T21], the “HRF2 ARE 2×” value was 443 nM. In the case of C[C@H]1C(=O)C(C(N)=O)=C[C@@]2(C)c3nc(-c4ccncc4)nc(-c4ccccc4)c3CC[C@H]12 [T16], the “HRF2 ARE 2×” value is reported as 1000 nM. In the case of C[C@H]1C(=O)C(C#N)=C[C@@]2(C)c3nc(-c4cn(C)c5ncccc45)nc(-c4ccccc4F)c3CC[C@H]12 [T72], the “HRF2 ARE 2×” value is reported as 374 nM. In the case of C[C@H]1C(=O)C(C#N)=C[C@@]2(C)c3nc(N4CCOCC4)nc(-c4ccccc4F)c3CC[C@H]12 [T92], the “HRF2 ARE 2×” value is reported as 491 nM. COc1nc(-c2ccncc2)nc2c1CC[C@@H]1[C@@H](C)C(=O)C(C#N)=C[C@@]21C [T5] was tested, and the “HRF2 ARE 2×” value was 365 nM. With Cc1cc(-c2nc(-c3ccc(F)cc3)c3c(n2)[C@]2(C)C=C(C(N)=O)C(=O)[C@H](C)[C@H]2CC3)ccn1 [T184] the “HRF2 ARE 2×” value was 1832 nM. In the case of CCC[C@H]1C(=O)C(C#N)=C[C@@]2(C)c3nc(-c4ccnc5ccccc45)nc(-c4ccccc4F)c3CC[C@H]12 [T158], the “HRF2 ARE 2×” value is reported as 315 nM. For C[C@H]1C(=O)C(C#N)=C[C@@]2(C)c3nc(-c4ccnc(CF)c4)nc(-c4ccccc4F)c3CC[C@H]12 [T83], the “HRF2 ARE 2×” value was 484 nM. For C[C@H]1C(=O)C(C#N)=C[C@@]2(C)c3nc(-c4ccncc4)nc(-c4ccc(C(F)(F)F)cc4)c3CC[C@H]12 [T24], the “HRF2 ARE 2×” value was 171 nM. C[C@H]1C(=O)C(C#N)=C[C@@]2(C)c3nc(-c4ccnc(C5CC5)c4)nc(-c4ccccc4F)c3C[C@H]12 [T174] was tested, and the “HRF2 ARE 2×” value was over 2000 nM. In the case of C[C@H]1C(=O)C(C#N)=C[C@@]2(C)c3nc(-c4ccnc(CO)c4)nc(-c4ccccc4F)c3CC[C@H]12 [T82], the “HRF2 ARE 2×” value is reported as 480 nM. CC(=O)N1CCN(c2nc(-c3ccccc3F)c3c(n2)[C@]2(C)C=C(C#N)C(=O)[C@H](C)[C@H]2CC3)CC1 [T139] was tested, and the “HRF2 ARE 2×” value was 222 nM. For C[C@H]1C(O)=C(C#N)C[C@@]2(C)c3nc(-c4ccncc4)nc(-c4ccccc4)c3CC[C@H]12 [T13], the “HRF2 ARE 2×” value was over 2000 nM. C[C@H]1C(=O)C(C#N)=C[C@@]2(C)c3nc(-c4ccncc4)nc(-c4ccc(Cl)cc4)c3CC[C@H]12 [T28] was tested, and the “HRF2 ARE 2×” value was 141 nM. For COc1nc(-c2ccncc2)nc2c1CC[C@@H]1[C@@H](C)C(=O)C=C[C@@]21C [T134], the “HRF2 ARE 2×” value was 3137 nM. For C[C@H]1C(=O)C(C#N)=C[C@@]2(C)c3nc(-c4ccncc4)nc(-c4cccc(C(F)(F)F)c4)c3CC[C@H]12 [T26], the “HRF2 ARE 2×” value was 267 nM. With C[C@H]1C(=O)C(C#N)=C[C@@]2(C)c3nc(-c4ccc(C(F)(F)F)cc4)nc(-c4ccccc4)c3CC[C@H]12 [T20] the “HRF2 ARE 2×” value was 608 nM. In the case of C[C@H]1C(=O)C(C#N)=C[C@@]2(C)c3nc(-c4ccncc4)nc(Cc4ccccc4)c3CC[C@H]12 [T36], the “HRF2 ARE 2×” value is reported as 484 nM. For COc1ccc(-c2nc(-c3ccncc3)nc3c2CC[C@@H]2[C@@H](C)C(=O)C(C#N)=C[C@@]32C)cc1 [T30], the “HRF2 ARE 2×” value was 136 nM. With C[C@H]1C(=O)C(C#N)=C[C@@]2(C)c3nc(N)nc(-c4ccccc4)c3CC[C@H]12 [T34] the “HRF2 ARE 2×” value was 469 nM. In the case of C[C@H]1C(=O)C(C#N)=C[C@@]2(C)c3nc(NC(=O)C4CCCCC4)nc(-c4ccccc4)c3CC[C@H]12 [T35], the “HRF2 ARE 2×” value is reported as 575 nM. For Cc1cc(-c2nc(-c3ccc(F)cc3)c3c(n2)[C@]2(C)CC(C#N)C(=O)[C@H](C)[C@H]2CC3)ccn1 (some centres unmarked) [T187], the “HRF2 ARE 2×” value was over 2000 nM. With Cc1cc(-c2nc(-c3ccccc3F)c3c(n2)[C@]2(C)C=C(C#N)C(=O)[C@H](C)[C@H]2CC3)ccn1 [T51] the “HRF2 ARE 2×” value was 364 nM. With COc1cc(-c2nc(OC)c3c(n2)[C@]2(C)C=C(C#N)C(=O)[C@H](C)[C@H]2CC3)ccn1 [T2] the “HRF2 ARE 2×” value was 247 nM. C[C@H]1C(=O)C(C#N)=C[C@@]2(C)c3nc(-c4ccnc(CF)c4)nc(-c4ccccc4F)c3C[C@H]12 [T171] was tested, and the “HRF2 ARE 2×” value was 1474 nM.
